Measured values: ChEMBL document CHEMBL5321196, “Fluorescent and theranostic probes for imaging nicotinamide phosphoribosyl transferase (NAMPT)” (Eur J Med Chem, 2023)
pIC50: −log10 of the molar value.

How the values were obtained:
[1] = target: T1, Nicotinamide phosphoribosyltransferase (Homo sapiens, UniProt P43490); assay: Inhibition of NAMPT in human A2780 cells measured at 6 hrs
[2] = target: T1, Nicotinamide phosphoribosyltransferase; assay: Inhibition of NAMPT in human A2780 cells measured at 24 hrs
[3] = target: T1, Nicotinamide phosphoribosyltransferase; assay: Inhibition of NAMPT in human A2780 cells measured at 48 hrs

T1 sequence (P43490 whole entry): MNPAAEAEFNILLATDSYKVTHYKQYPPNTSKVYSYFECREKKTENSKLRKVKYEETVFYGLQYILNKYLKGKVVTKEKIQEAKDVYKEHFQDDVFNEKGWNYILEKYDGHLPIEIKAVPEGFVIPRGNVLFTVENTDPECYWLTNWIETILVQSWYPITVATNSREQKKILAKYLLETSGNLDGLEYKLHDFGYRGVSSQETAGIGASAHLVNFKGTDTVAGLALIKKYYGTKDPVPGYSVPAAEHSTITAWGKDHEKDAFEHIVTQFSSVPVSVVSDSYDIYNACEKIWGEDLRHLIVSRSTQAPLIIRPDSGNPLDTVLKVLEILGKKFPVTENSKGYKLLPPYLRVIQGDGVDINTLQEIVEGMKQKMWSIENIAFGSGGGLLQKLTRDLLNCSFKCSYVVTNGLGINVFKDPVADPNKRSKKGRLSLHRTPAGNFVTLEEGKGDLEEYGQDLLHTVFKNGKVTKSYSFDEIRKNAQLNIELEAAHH

O=S(=O)(c1ccc(NC(=S)NCc2cccnc2)cc1)N1CCNCC1
pIC50 [1]: < 5.00
pIC50 [2]: 5.14
pIC50 [3]: 5.39
